Test [1] addresses T1, Full length Human HDAC6 (Homo sapiens, UniProt Q9UBN7).
T1 construct: Full length Human HDAC6; FLAG (C); host or cells: baculovirus expression system
T1 sequence (Q9UBN7 1-1215): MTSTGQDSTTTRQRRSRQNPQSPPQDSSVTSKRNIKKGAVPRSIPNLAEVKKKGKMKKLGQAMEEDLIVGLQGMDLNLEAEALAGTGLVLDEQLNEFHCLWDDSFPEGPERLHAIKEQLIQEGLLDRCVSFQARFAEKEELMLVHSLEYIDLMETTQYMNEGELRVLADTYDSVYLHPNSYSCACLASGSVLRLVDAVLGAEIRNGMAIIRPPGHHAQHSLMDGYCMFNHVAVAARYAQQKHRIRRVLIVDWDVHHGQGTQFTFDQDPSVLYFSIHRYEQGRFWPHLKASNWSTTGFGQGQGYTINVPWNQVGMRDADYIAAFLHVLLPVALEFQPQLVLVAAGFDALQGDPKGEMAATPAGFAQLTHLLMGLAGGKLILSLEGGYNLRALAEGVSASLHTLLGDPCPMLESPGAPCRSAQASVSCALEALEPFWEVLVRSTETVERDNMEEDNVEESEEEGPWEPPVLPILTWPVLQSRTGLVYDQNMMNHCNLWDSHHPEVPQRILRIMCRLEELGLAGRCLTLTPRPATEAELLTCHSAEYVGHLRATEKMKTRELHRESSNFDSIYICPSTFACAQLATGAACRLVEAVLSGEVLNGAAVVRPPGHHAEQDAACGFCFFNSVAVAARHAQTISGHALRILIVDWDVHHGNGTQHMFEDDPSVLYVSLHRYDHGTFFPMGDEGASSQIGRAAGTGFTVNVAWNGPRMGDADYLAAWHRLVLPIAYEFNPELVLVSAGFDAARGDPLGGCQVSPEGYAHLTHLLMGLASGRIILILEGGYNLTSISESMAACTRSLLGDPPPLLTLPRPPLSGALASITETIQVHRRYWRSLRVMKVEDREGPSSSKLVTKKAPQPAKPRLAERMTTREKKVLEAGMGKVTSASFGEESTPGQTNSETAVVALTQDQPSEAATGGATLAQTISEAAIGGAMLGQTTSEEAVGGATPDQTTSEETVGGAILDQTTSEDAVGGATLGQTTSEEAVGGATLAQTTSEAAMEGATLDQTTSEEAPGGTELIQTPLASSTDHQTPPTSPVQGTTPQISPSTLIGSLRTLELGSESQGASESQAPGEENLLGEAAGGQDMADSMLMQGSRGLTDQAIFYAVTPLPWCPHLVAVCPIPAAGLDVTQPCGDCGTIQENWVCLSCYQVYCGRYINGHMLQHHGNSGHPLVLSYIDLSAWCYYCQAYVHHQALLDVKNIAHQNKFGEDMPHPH
The test can be described thus: Caliper endpoint assay for HDAC enzymatic activity (HDAC6). Type of test: biochemical. Conditions: for IC50: in vitro enzymatic, Caliper endpoint assay, 30 min pre-incubation, 1 μM substrate peptide; for Selectivity (6 v 8): ratio of HDAC8 IC50/HDAC6 IC50.

For test [2], the target named is T2, Full length Human HDAC8 (Homo sapiens, UniProt Q9BY41).
T2 construct: Full length Human HDAC8; HIS (N); host or cells: baculovirus expression system
T2 sequence (Q9BY41 1-377): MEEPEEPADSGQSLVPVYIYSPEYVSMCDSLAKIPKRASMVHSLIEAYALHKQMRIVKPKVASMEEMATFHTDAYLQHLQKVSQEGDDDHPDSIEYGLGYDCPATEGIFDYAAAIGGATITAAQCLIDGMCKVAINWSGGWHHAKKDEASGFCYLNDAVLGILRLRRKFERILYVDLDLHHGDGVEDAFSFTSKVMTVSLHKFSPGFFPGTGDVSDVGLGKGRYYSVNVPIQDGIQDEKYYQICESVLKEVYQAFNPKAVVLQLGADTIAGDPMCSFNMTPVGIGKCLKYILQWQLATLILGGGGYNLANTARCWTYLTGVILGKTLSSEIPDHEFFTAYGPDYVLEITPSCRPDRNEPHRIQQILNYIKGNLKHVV
The test can be described thus: Caliper endpoint assay for HDAC enzymatic activity (HDAC8). In kind it is biochemical. The note with it: in vitro enzymatic, 30 min pre-incubation, 1 μM substrate peptide.

Consider `O=C(NO)c1cc(F)c2c(c1)CCN(C1CCC3(CCNCC3)C1)C2` (centres unmarked) [Compound 416, 8-fluoro-N-hydroxy-2-(8-azaspiro[4.5]decan-2-yl)-1,2,3,4-tetrahydroisoquinoline-6-carboxamide], for which the 50% inhibitory concentration (IC50) in test [1] was 0.001 to 0.1 µM; in test [2], 10 to 100 µM. Further, in test [1], the “Selectivity (6 v 8)” value was “IV (IV: >100-1000)”.

Turning to `CC(=O)N1CCC[C@]2(C1)C[C@H](N1CCc3cc(C(=O)NO)cc(F)c3C1)C2` (single isomer, unassigned) [Compound 348, 2-(6-acetyl-6-azaspiro[3.5]nonan-2-yl)-8-fluoro-3,4-dihydro-1H-isoquinoline-6-carbohydroxamic acid], in test [1], the IC50 fell in the range of 0.001 to 0.1 µM and the “Selectivity (6 v 8)” value is on record as “IV (IV: >100-1000)”. Besides, the IC50 in test [2] lay in the range of 10 to 100 µM.

For `O=C(NO)c1cc(F)c2c(c1)CCN(C1CCC3(CC1)CN(Cc1ccccc1)C3)C2` [Compound 430, 2-(2-benzyl-2-azaspiro[3.5]nonan-7-yl)-8-fluoro-3,4-dihydro-1H-isoquinoline-6-carbohydroxamic acid], the IC50 in test [1] was in the range of 0.001 to 0.1 µM; in test [2], 1 to 10 µM. In addition, the “Selectivity (6 v 8)” value in test [1] is “IV (IV: >100-1000)”.

On to `CC[C@H]1Cc2c(F)cc(C(=O)NO)cc2CN1C1CC(C)(C)C1` (single isomer, unassigned) [Compound 593], for which, in test [1], the IC50 was in the range of 0.1 to 1 µM and the “Selectivity (6 v 8)” value is “IV (IV: >100-1000)”. For the same molecule, the IC50 in test [2] is 10 to 100 µM.

Take `CC[C@@H]1Cc2c(F)cc(C(=O)NO)cc2CN1CC12CC3CC(CC(C3)O1)C2` (single isomer, unassigned) [Compound 509]: in test [1], the IC50 was 0.001 to 0.1 µM and the “Selectivity (6 v 8)” value is on record as “III (III: >10-100)”. The same molecule displayed an IC50 in test [2] of 1 to 10 µM.

`CN1CC2(CCC2N2CCc3cc(C(=O)NO)cc(F)c3C2)C1` (centres unmarked) [Compound 302, 8-fluoro-2-(2-methyl-2-azaspiro[3.3]heptan-7-yl)-3,4-dihydro-1H-isoquinoline-6-carbohydroxamic acid]: the half-inhibitory concentration (IC50) in test [1] was 0.001 to 0.1 µM; in test [2] it was 1 to 10 µM. Besides, the “Selectivity (6 v 8)” value in test [1] is given as “IV (IV: >100-1000)”.

Consider `O=C(NO)c1cc(F)c2c(c1)CCN(C1CC3(CCCC3)C1)C2` [Compound 183, 8-fluoro-N-hydroxy-2-(spiro[3.4]octan-2-yl)-1,2,3,4-tetrahydroisoquinoline-6-carboxamide], for which, in test [1], the 50% inhibitory concentration (IC50) was 0.001 to 0.1 µM and the “Selectivity (6 v 8)” value is “V (V: >1000)”. For the same molecule, the IC50 in test [2] was > 100 µM.

Turning to `CC[C@H]1Cc2c(F)cc(C(=O)NO)cc2CN1C[C@H]1CCCCO1` (single isomer, unassigned) [Compound 231], the figures for the half-inhibitory concentration (IC50) in test [1] and in test [2] were 0.001 to 0.1 µM and 1 to 10 µM, respectively. In addition, in test [1], the “Selectivity (6 v 8)” value is given as “IV (IV: >100-1000)”.

As to `O=C(NO)c1cc(F)c2c(c1)CN1CCC[C@H]1C2` [Compound 123], in test [1], the IC50 was in the range of 0.1 to 1 µM and the “Selectivity (6 v 8)” value was “III (III: >10-100)”. For the same molecule, the IC50 in test [2] was in the range of 1 to 10 µM.

For the molecule `CC(C)N1CC2(CCCCC2)CC[C@H]1Cc1cc(F)cc(C(=O)NO)c1` (single isomer, unassigned) [Compound 274], in test [1], the 50% inhibitory concentration (IC50) was in the range of 10 to 100 µM and the “Selectivity (6 v 8)” value is “I (I: 0.1-1)”. Further, in test [2], the IC50 lay within 1 to 10 µM.

Regarding `O=C(NO)c1cc(F)c2c(c1)CCN(CC1C3CNCC1C3)C2` (centres unmarked) [Compound 493], in test [1], the IC50 lay in the range of 0.001 to 0.1 µM and the “Selectivity (6 v 8)” value is on record as “IV (IV: >100-1000)”. The IC50 in test [2] is 10 to 100 µM.

For the molecule `CC[C@@H]1CCCN1Cc1ccc(C(=O)NO)cc1F` [Compound 48], the IC50 in test [1] lay in the range of 0.001 to 0.1 µM; in test [2], 1 to 10 µM.

Consider `O=C(NO)c1cc(F)c2c(c1)CCN([C@@H]1CCC3(CCCC3)C1)C2` (single isomer, unassigned) [Compound 184], for which, in test [1], the IC50 lay in the range of 0.001 to 0.1 µM and the “Selectivity (6 v 8)” value is recorded as “IV (IV: >100-1000)”. In test [2], this molecule showed an IC50 of 1 to 10 µM.

As to `O=C(NO)c1cc(F)c2c(c1)CCN([C@@H]1CC[C@]13CCOC3)C2` (single isomer, unassigned) [Compound 318], in test [1], the IC50 lay in the range of 0.001 to 0.1 µM and the “Selectivity (6 v 8)” value is “V (V: >1000)”. The molecule further returned a 50% inhibitory concentration (IC50) in test [2] of 10 to 100 µM.

As for `O=C(NO)c1cc(F)c2c(c1)CCN([C@@H]1CCCC3(CCC3)C1)C2` (single isomer, unassigned) [Compound 194], in test [1], the 50% inhibitory concentration (IC50) was 0.001 to 0.1 µM and the “Selectivity (6 v 8)” value was “V (V: >1000)”. Moreover, the half-inhibitory concentration (IC50) in test [2] lay within 10 to 100 µM.

In the case of `CN1Cc2cc(C(=O)NO)cc(F)c2CN1Cc1ccccc1` [Compound 118], in test [1], the half-inhibitory concentration (IC50) was in the range of 0.001 to 0.1 µM and the “Selectivity (6 v 8)” value was “IV (IV: >100-1000)”. In test [2], this molecule came in with a concentration for half-maximal inhibition (IC50) of 1 to 10 µM.

Consider `O=C(NO)c1cc(F)c2c(c1)CCN(C1CCC13CCNCC3)C2` (centres unmarked) [Compound 357, 2-(7-azaspiro[3.5]nonan-3-yl)-8-fluoro-3,4-dihydro-1H-isoquinoline-6-carbohydroxamic acid], for which, in test [1], the IC50 fell in the range of 0.001 to 0.1 µM and the “Selectivity (6 v 8)” value is listed as “IV (IV: >100-1000)”. Further, in test [2], the IC50 was in the range of 1 to 10 µM.

For `CC(=O)N1CCC2(CCC(N3CCc4cc(C(=O)NO)cc(F)c4C3)C2)CC1` (centres unmarked) [Compound 419, 2-(8-acetyl-8-azaspiro[4.5]decan-3-yl)-8-fluoro-3,4-dihydro-1H-isoquinoline-6-carbohydroxamic acid], in test [1], the IC50 is 0.001 to 0.1 µM and the “Selectivity (6 v 8)” value was “IV (IV: >100-1000)”. The concentration for half-maximal inhibition (IC50) in test [2] was 10 to 100 µM.

With `[2H]c1cc2c(cc1C(=O)NO)CCN(C1CC3(CCCCC3)C1)C2` [Compound 504, N-hydroxy-2-(spiro[3.5]nonan-2-yl)-1,2,3,4-tetrahydroisoquinoline-7-d-6-carboxamide], the 50% inhibitory concentration (IC50) in test [1] fell in the range of 0.1 to 1 µM; in test [2] it was 10 to 100 µM. In test [1], the “Selectivity (6 v 8)” value was “IV (IV: >100-1000)”.

For `O=C(NO)c1cc(F)c2c(c1)CCN(CC1CCC3(CC1)CN(C1CC1)C3)C2` [Compound 466, 2-[(2-cyclopropyl-2-azaspiro[3.5]nonan-7-yl)methyl]-8-fluoro-3,4-dihydro-1H-isoquinoline-6-carbohydroxamic acid], in test [1], the IC50 fell in the range of 0.001 to 0.1 µM and the “Selectivity (6 v 8)” value was “V (V: >1000)”. In test [2], this molecule returned an IC50 of 10 to 100 µM.

On to `CC[C@H]1Cc2c(F)cc(C(=O)NO)cc2CN1C1CC2(CCOCC2)C1` (single isomer, unassigned) [Compound 591], for which the results for the 50% inhibitory concentration (IC50) in test [1] and in test [2] were 0.001 to 0.1 µM and 10 to 100 µM, respectively. The “Selectivity (6 v 8)” value in test [1] is “IV (IV: >100-1000)”.

Take `CC[C@@H]1Cc2c(F)cc(C(=O)NO)cc2CN1CC1CC2(CCCCC2)C1` (single isomer, unassigned) [Compound 521]: the IC50 in test [1] is 0.001 to 0.1 µM; in test [2], 0.1 to 1 µM. In addition, the “Selectivity (6 v 8)” value in test [1] is reported as “III (III: >10-100)”.

Consider `CC[C@H]1Cc2c(F)cc(C(=O)NO)cc2CN1CC1CC2(CCCCC2)C1` (single isomer, unassigned) [Compound 522], for which, in test [1], the IC50 fell in the range of 0.001 to 0.1 µM and the “Selectivity (6 v 8)” value is on record as “III (III: >10-100)”. This molecule also yielded an IC50 in test [2] of 0.1 to 1 µM.

As for `CC[C@H]1Cc2c(F)cc(C(=O)NO)cc2CN1CC1CC2CCC(C1)N2C1CC1` (single isomer, unassigned) [Compound 576], in test [1], the half-maximal inhibitory concentration (IC50) lay in the range of 0.001 to 0.1 µM and the “Selectivity (6 v 8)” value is listed as “IV (IV: >100-1000)”. In test [2], this molecule had a half-inhibitory concentration (IC50) of 1 to 10 µM.

Consider `O=C(NO)c1cc(F)c2c(c1)CCN(C1CCC3(CC1)COC3)C2` [Compound 425, 8-fluoro-2-(2-oxaspiro[3.5]nonan-7-yl)-3,4-dihydro-1H-isoquinoline-6-carbohydroxamic acid], for which, in test [1], the IC50 was 0.001 to 0.1 µM and the “Selectivity (6 v 8)” value is “V (V: >1000)”. Also, the concentration for half-maximal inhibition (IC50) in test [2] is 10 to 100 µM.

Usually IC50 stands for the midpoint of a concentration-inhibition curve.

The record behind these values is US12655106B2 (Eikonizo Therapeutics, Inc., priority 2021, dated 2026).
